# Measured values from patent US10166210B2, “Methods of subtyping CRC and their association with treatment of colon cancer patients with oxaliplatin” (NSABP Foundation, Inc., priority 2014, dated 2019).
# How the values were obtained:
# early-stage colon cancer = conditions: recent MOSAIC analysis; all stage II or high risk stage II patients; cited from earlier work
# [1] = tested on: stage II and III colon cancer, CRC subtypes; assay: C-07 discovery cohort: oxaliplatin benefit by CRC intrinsic subtype (CRC-SSP-72), Kaplan Meier analysis; type: in vivo, human
# Excerpt: FIG. 3 Kaplan Meier Plots of each CRC subtype using our gene signature by CRC-SSP-72 according to treatment (FULV versus FOLFOX) using recurrence free survival (RFS) as the end point. Among identified CRC subtypes, only Enterocyte received significant benefit (HR=0.315, p=0.005).
# FIG. 4 Kaplan Meier Plots of the Enterocyte subtype and of all of the other subtypes (Goblet-like, Inflammatory, Stem-like and TA) combined into one group (Others) There is significant treatment-group interaction (p=0.012)
# We have profiled 296 genes in 1840 patients using the nCounter Assay system (Nanostring Technologies, Seattle Wash.). Clinical data and nCounter data for the discovery dataset were merged and anonymized by the honest broker at the University of Pittsburgh as defined by standard operations under IRB approval of NSABP Biospecimen Bank and Biostatistics Center. We have developed a predictive algorithm to classify tumors into oxaliplatin benefit or no benefit group using discovery cohort of 848 patients without access to the data from the remaining 992 patients (validation cohort).
# For C07, 2409 patients were enrolled in C-07 and all cases with tumor blocks, proper consent, clinical follow-up information and sufficient RNA yields were used in this study (N=1840). These cases were split into a discovery (N=848) and a validation (N=992) cohort (FIG. 1). […]
# [2] = tested on: stage II and III colon adenocarcinoma; conditions: oxaliplatin added to FU and LV; trials MOSAIC and C-07; cited from earlier work
structure (smiles),measurement,setting,value
O=C1[O][Pt]2([NH][C@@H]3CCCC[C@H]3[NH]2)[O]C1=O [oxaliplatin],benefit in stage II patients,early-stage colon cancer,no statistically significant benefit
same,recurrence free survival (RFS) HR,"[1]; Enterocyte subtype, FULV versus oxaliplatin arm, p=0.005",0.315
same,benefit from oxaliplatin by subtype,"[1]; enterocyte subtype versus TA, goblet, inflammatory and stem-like, treatment-group interaction p=0.012",only the enterocyte subtype received benefit
same,disease free survival (DFS),[2],significantly improved disease free survival
